In paper PMC9927457 (Microbiology Spectrum, 2023):
≈ marks a conversion by molar mass, not a printed value.

Assays:
CYP3A4 = CYP3A4 (Homo sapiens, UniProt P08684); assay: Cytochrome P450 inhibition; format: in vitro ADME; conditions: liver microsomes
Method: Table S4. Inhibition of cytochrome P450s.
Compounds were tested for inhibition of P450s using the enzyme substrate pairs and conditions noted. IC50s (µM) were calculated. Control P450 inhibitors were included for each isoform.
For each compound, the analytical method was developed as follows. Analyte signal was optimized for each compound by ESI positive or negative ionization mode. An MS2 scan or an SIM scan was used to optimize fragmenter voltage and a product ion analysis was used to identify the best fragment for analysis. The collision energy was optimized using a product ion or MRM scan. An ionization ranking was assigned indicating the compound’s ease of ionization. Samples […]
1200 HPLC and a CTC PAL chilled autosampler, all controlled by MassHunter software (Agilent).
After separation on a C18 reverse phase HPLC column (Agilent Zorbax StableBond 3.5µm, 2.1 x 30 mm) using an acetonitrile -water gradient system, peaks were analyzed by mass spectrometry (MS) using ESI ionization in MRM mode.
(1 picture or pasted object on this page, not shown here)
Serial dilutions of a 10 mM stock solution were prepared in acetonitrile:DMSO (9:1). The final DMSO concentration was < 0.2%. Compounds were incubated with human liver microsomes in the presence of 2 mM NADPH in 100 mM potassium phosphate (pH 7.4) containing 5 mM magnesium chloride and a probe substrate, in a 200 µl assay final volume in duplicate. The probe substrate concentrations including bupropion (CYP2B6), amodiaquine (CYP2C8), tolbutamide (CYP2C9), mephenytoin (CYP2C19), dextromethorphan (CYP2D6) and midazolam/testosterone […]
After incubation at 37 °C, reactions were terminated by addition of methanol containing internal standard (propranolol) for analytical quantification. The quenched samples were kept on ice for 10 min and centrifuged at 4 °C for 10 min. The supernatant was removed and the probe substrate metabolite was analyzed by LC-MS/MS (Agilent Technologies Triple Quad LC/MS). A decrease in the formation of the metabolite compared to vehicle control

[1] = Plasma protein binding (Rapid Equilibrium Dialysis); format: in vitro ADME, human; conditions: human; for fraction unbound at 4 h, 5 µM: plasma
Method: Molecule fraction fraction Post-Assay
Table S5. Plasma protein binding
Protein binding was measured in human plasma using Rapid Equilibrium Dialysis (RED) devices (Pierce) according to the manufacturers’ instructions; 5 µM compounds in plasma were dialysed against PBS for 4 h at 37C. Compounds were detected by LC-MS/MS in plasma and PBS

RAW 264.7 macrophages = assay: Cytotoxicity against infected macrophages; format: cell-based, murine; conditions: Mus musculus; infected RAW264:7 cells, 72 h; read-out: IC50 Macrophage
Method: Murine RAW 264.7 macrophages (ATCC TIB-71) were infected with M. tuberculosis DsRed (DREAM8) ([29]) as described at a multiplicity of infection of 1 for 24 h, washed, harvested, and dispensed into 384-well plates ([30]). Infected macrophages were exposed to compounds for 72 h; cell nuclei were stained with SYBR green I. Plates were imaged with an ImageXpress Micro High Content Screening System (Molecular Devices) using a ×4 objective and FITC and Texas Red channels. MetaXpress was used to determine the integrated intensity of bacteria or macrophages. […] Isoniazid and staurosporine controls (maximum inhibition) and dose responses were included on every plate.

[2] = system: M. tuberculosis strain under expressing LepB (LepB-UE); assay: microbe, parasite or virus in culture; format: cell-based, Mycobacterium tuberculosis
[3] = system: M. tuberculosis wild-type strain; assay: MIC against wild-type M. tuberculosis; format: cell-based, Mycobacterium tuberculosis; conditions: concentration required to inhibit growth by 90%, 5 days culture
[4] = target: SPase activity in M. tuberculosis H37Rv cell membrane fractions (Mycobacterium tuberculosis, UniProt P9WKA1); assay: Inhibition of secretion (SPase activity) in membrane fractions; format: biochemical; conditions: fluorogenic peptide substrate 2 μM; 4 h, 37 °C
Chain of SPase activity in M. tuberculosis H37Rv cell membrane fractions (P9WKA1 whole entry): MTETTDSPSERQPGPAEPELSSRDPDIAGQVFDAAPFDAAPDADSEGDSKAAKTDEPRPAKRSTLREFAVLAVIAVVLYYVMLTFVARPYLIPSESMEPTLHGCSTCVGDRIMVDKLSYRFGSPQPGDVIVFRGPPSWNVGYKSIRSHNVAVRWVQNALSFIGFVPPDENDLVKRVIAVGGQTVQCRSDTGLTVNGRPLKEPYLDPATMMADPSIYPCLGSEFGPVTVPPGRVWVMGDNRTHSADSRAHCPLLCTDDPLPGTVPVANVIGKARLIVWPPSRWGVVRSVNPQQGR

[5] = system: nonreplicating M. tuberculosis; assay: Kill kinetics, nonreplicating (nutrient starved) bacteria; format: cell-based, Mycobacterium tuberculosis; conditions: nutrient starvation, PBS-tyloxapol
[6] = Mean plasma fraction Unbound Fuplasma

Chain of CYP3A4 (P08684 2-503): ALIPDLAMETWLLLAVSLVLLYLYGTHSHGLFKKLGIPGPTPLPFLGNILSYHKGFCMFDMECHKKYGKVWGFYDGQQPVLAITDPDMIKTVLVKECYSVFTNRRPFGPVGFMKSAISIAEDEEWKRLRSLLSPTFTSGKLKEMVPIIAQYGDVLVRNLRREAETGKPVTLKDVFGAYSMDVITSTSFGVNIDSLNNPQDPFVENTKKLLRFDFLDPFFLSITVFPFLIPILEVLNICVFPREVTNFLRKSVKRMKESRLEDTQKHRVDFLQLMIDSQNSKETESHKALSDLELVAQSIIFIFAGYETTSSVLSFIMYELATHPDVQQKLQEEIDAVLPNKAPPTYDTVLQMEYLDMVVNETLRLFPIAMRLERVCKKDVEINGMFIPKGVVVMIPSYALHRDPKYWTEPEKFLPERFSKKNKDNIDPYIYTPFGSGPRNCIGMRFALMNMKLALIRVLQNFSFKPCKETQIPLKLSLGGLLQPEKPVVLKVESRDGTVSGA

## CCCCNC(=S)Nc1nc(C)co1 [Molecule 21, 1-butyl-3-(4-methyloxazol-2-yl)thiourea]
CYP3A4; pH 7.4, probe midazolam
  IC50 at 10 min: > 20 µM
CYP3A4; pH 7.4, probe testosterone
  IC50 at 10 min: 11.9 µM
[1]
  recovery at 4 h, 5 µM: 83.9%
[1]; Mean plasma fraction Bound
  fraction unbound at 4 h, 5 µM: 0.037
[1]; [6]
  fraction unbound at 4 h, 5 µM: 0.037
RAW 264.7 macrophages
  IC50: 6 ± 1 µM
[2]
  MIC LepB-UE: 8.4 ± 3.4 µM (≈ 1.79 µg/mL)
[2]; Mycobacterium tuberculosis, 120 h
  MIC: 8 to 9 µM (≈ 1.71 to 1.92 µg/mL)
[3]; Mycobacterium tuberculosis, 120 h, read-out: MIC Wild type
  MIC: 10 µM (≈ 2.13 µg/mL)
[3]
  MIC Wild type: 10 ± 2.0 µM (≈ 2.13 µg/mL)

## CCCCNC(=S)Nc1nc2ccccc2s1 [Molecule 1, 1-(benzo[d]thiazol-2-yl)-3-butylthiourea]
CYP3A4; pH 7.4, probe midazolam
  IC50 at 10 min: > 20 µM
CYP3A4; pH 7.4, probe testosterone
  IC50 at 10 min: > 20 µM
[4]
  IC50: > 200 µM
[5]
  concentration giving sterilization of nonreplicating organisms: 20 µM
[1]
  recovery at 4 h, 5 µM: 84.3%
[1]; Mean plasma fraction Bound
  fraction unbound at 4 h, 5 µM: 0.001
[1]; [6]
  fraction unbound at 4 h, 5 µM: 0.001
RAW 264.7 macrophages
  IC50: > 100 µM
